# Laboratory results taken from article PMC2759517 (PLoS ONE, 2009).
# Test system: PA-HA from several FluA strains
# Type: binding, influenza A virus
compound,measurement,value
CC[C@H](C)[C@H](NC(=O)[C@H](C)NC(=O)[C@H](CC(N)=O)NC(=O)[C@H](CCC(N)=O)NC(=O)[C@H](C)NC(=O)[C@@H]1CCCN1C(=O)[C@@H](NC(=O)[C@H](CCCCN)NC(=O)[C@H](CC(C)C)NC(=O)[C@H](Cc1ccccc1)NC(=O)[C@H](CC(C)C)NC(=O)[C@H](CC(C)C)NC(=O)[C@@H](NC(=O)[C@@H]1CCCN1C(=O)[C@H](CC(N)=O)NC(=O)[C@@H](NC(=O)[C@H](CC(=O)O)NC(=O)[C@@H](N)CCSC)C(C)C)[C@@H](C)O)C(C)C)C(=O)N[C@@H](CO)C(=O)N[C@H](C(=O)N[C@H](C(=O)N[C@@H](Cc1ccccc1)C(=O)N1CCC[C@H]1C(=O)N[C@@H](Cc1ccc(O)cc1)C(=O)N[C@H](C(N)=O)[C@@H](C)O)[C@@H](C)O)[C@@H](C)O [PB1_1–25A],Binding of FluA PA-HA to immobilized peptide,bound
